System: Drosophila melanogaster
Test: Insecticidal activity against wild type Drosophila melanogaster L. assessed as mortality compound topically applied dorsally to the thorax at 23 to 25 25 degC, 60 to 70%RH measured per adult after 3 hr
Format: functional

## C=C[C@]1(C)CC[C@@H](C(C)(C)O)C[C@H]1C(=C)C [ALPHA-ELEMOL]
  LD50: 0.65 µg

## C=C1CCC[C@]2(C)Cc3occ(C)c3C[C@@H]12 [ATRACTYLON]
  LD50: 1.43 µg

## C=C1CCC[C@]2(C)CC[C@@H](C(C)(C)O)C[C@@H]12 [BETA-EUDESMOL]
  LD50: 2.63 µg

## C=C(C)[C@@H]1CC[C@@]2(C)CCCC(=C)[C@@H]2C1 [BETA-SELINENE]
  LD50: 0.55 µg

## CC1=CCC[C@H](C)[C@@]12CC[C@@H](C(C)(C)O)C2 [HINESOL]
  LD50: 0.71 µg
